From paper PMC11089204 (Frontiers in Pharmacology, 2024)
Counter-ions that a name gives are not always drawn.

What was measured:
[1] = Pharmacokinetics and metabolites in mouse plasma after oral psilocybin; type: in vivo, C57BL/6J mice; settings: for half-life / Cmax / Tmax: male, C57BL/6J, po; for half-life: mouse, plasma, read-out: elimination half-life t1/2 (mean ± SD) (converted); for Cmax: read-out: Cmax (mean ± SD); for Tmax: read-out: tmax (mean ± SD)
Description: C57BL/6J adult male mice (Janvier, Le Genest-Saint-Isle, France) were maintained in littermate pairs in standard cages (containing sawdust, a sleeping chamber, tissue paper, and a wood stick) with water and pellet food available ad libitium. The colony room was on a reversed light-dark cycle (dark phase 07:00 to 19:00) with temperature at 22°C and humidity at 50–60%. A total of 10 mice were dosed orally with either 3 mg/kg bodyweight psilocybin (n = 5) or saline solution (n = 5). Dosing and blood sampling were conducted between 09:00 and 13:00. The mouse was placed in a plastic restrainer with the tail protruding through a hole in the end of the tube. The tail was immersed in warm water for 1 min for vasodilation and then a small incision was made on the lateral tail surface near the distal tip. 50 μL of blood was massaged gently into an EDTA-coated capillary blood tube (Mircovette, Sarstedt, Nümbrecht, Germany). The first (baseline) blood sample was collected directly before compound administration via oral gavage and the mouse was then returned to the home cage. Further blood samples were collected at 15, 30, 60, and 120 min post-treatment. Each sample was drawn from the same incision site, with mice maintained in the home cage in the intervening periods. The blood samples were stored on ice and centrifuged for 10 min at 780 × g and 4°C. Subsequently, the plasma was transferred into cryotubes (Protein LoBind, Eppendorf) and stored at −80 °C until analysis. All procedures were conducted under a permit for animal experimentation (ZH038/2022) issued by the Veterinary Office Zurich in accordance with the Animal Protection Act (1978) of Switzerland. The use of psilocybin was authorized by the Federal Office of Public Health (FOPH).
Pharmacokinetic parameters were calculated using Phoenix WinNonlin software (version 8.1.0, Certara, Princeton, USA). The elimination half-life (t1/2, min) was assessed as t1/2 = ln(2)/λ, while the elimination constant was calculated by linear regression in the terminal elimination phase. The maximal plasma concentration (Cmax, ng/mL) and the time to reach this concentration (tmax, h) were direct read-outs of the graphical plots.

[2] = target: T1, MAO-A in human liver microsomes (HLM) (Homo sapiens, UniProt P21397); test: Monoamine oxidase A inhibition in human liver microsomes; type: in vitro ADME; settings: 5 μM kynuramine, t = 240 min
T1 construct: tissue Corning Life Sciences B.V; host or cells: pooled human liver microsomes
T1 sequence (P21397 1-527): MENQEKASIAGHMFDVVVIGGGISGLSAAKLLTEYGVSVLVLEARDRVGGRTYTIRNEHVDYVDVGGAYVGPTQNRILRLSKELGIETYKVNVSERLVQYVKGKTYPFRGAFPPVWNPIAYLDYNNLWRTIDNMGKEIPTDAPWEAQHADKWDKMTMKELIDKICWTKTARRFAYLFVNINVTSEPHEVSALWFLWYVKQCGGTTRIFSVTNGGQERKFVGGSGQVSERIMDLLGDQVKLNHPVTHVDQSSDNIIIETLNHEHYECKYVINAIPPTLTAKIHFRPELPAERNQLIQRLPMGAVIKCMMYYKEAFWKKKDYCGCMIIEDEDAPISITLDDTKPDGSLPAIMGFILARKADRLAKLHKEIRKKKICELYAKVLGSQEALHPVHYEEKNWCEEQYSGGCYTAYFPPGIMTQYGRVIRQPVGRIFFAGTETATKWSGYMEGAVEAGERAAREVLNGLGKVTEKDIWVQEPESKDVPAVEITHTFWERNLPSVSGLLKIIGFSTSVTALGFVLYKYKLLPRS

recombinant MAO-A = target: T2, recombinant MAO-A (Homo sapiens, UniProt P21397); test: Incubation with recombinant MAO-A enzymes; type: in vitro ADME
T2 construct: purchased Corning Life Sciences B.V
T2 sequence (P21397 1-527): T1 sequence (P21397 1-527)
Description: (§1) Corning UltraPool human liver microsomes (HLM) 150 (20 mg/mL), human intestinal microsomes (HIM) pool (10 mg/mL) as well as recombinant human CYP enzymes (with P450 oxidoreductase, OR) including CYP1A2+OR (0.5 nmol), CYP2B6+OR (0.5 nmol), CYP2C8+OR (1.0 nmol), CYP2C9*1+OR (1 nmol), CYP2C19+OR (0.5 nmol), CYP2D6*1+OR (0.5 nmol), CYP2E1+OR + cytochrome b5 (1 nmol), CYP3A4+OR + cytochrome b5 (0.5 nmol), MAO-A (5 mg/mL), MAO-B (5 mg/mL), and UGT1A10 (5 mg/mL) were purchased from Corning Life Sciences B.V (Amsterdam, Netherlands). All microsomes and recombinant enzyme solutions were aliquoted and stored at −80 °C until further use.
(§2) The MAO inhibition assay was based on the assay described in section 2.5.1 and performed identically if not otherwise stated.

recombinant MAO-B = target: T3, recombinant MAO-B (Homo sapiens, UniProt P27338); test: Incubation with recombinant MAO-B enzymes; type: in vitro ADME
T3 construct: purchased Corning Life Sciences B.V
T3 sequence (P27338 1-520): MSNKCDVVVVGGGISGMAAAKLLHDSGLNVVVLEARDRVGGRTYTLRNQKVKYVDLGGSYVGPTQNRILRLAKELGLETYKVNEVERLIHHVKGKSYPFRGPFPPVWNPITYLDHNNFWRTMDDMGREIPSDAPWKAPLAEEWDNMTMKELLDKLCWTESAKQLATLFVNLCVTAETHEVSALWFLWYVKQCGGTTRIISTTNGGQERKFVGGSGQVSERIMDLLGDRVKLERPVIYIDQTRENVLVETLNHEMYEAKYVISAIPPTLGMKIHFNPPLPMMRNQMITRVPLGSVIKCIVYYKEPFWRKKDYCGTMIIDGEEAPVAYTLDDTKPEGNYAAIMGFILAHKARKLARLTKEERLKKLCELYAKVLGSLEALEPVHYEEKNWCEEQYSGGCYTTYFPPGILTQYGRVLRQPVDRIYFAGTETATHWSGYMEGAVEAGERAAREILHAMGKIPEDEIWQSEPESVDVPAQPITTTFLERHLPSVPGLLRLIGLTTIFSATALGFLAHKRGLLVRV
Description: as §1, §2

[3] = ref Holze et al., 2022a, cited from earlier work
[4] = 3 mg/kg, mouse plasma, 3 mg/kg psilocybin p.o., n = 5
[5] = mouse plasma, 3 mg/kg psilocybin p.o., n = 5
[6] = 1,000 nM DMT, rec. MAO-A, t = 240 min
[7] = 1,000 nM DMT, rec. MAO-B, t = 240 min

Q: What does the source list for O=C(O)Cc1c[nH]c2cccc(OC3O[C@H](C(=O)O)[C@@H](O)[C@H](O)[C@H]3O)c12 (stereo partly drawn) [4-HIAA-glucuronide]?
A: half-life [1, 4]: 82.8 ± 16.2 min; Cmax [1, 5]: 30 ± 6.7 ng/mL; Tmax [1, 5]: 27 ± 6.6 min

Q: With Oc1ccnc2ccccc12 [4-HQ, 4-hydroxyquinoline] as the compound, how does the “4-HQ concentration formed from kynuramine” value (from here on “4-HQ concentration formed”) ([2]; HLM with clorgyline) read?
A: 347 ± 67 nM

Q: And the “4-HQ concentration formed” value ([2]; HLM)?
A: 1,974 ± 302 nM

Q: And the “4-HQ concentration formed” value (recombinant MAO-A; 5 μM kynuramine, rec. MAO-A, t = 300 min)?
A: 2,694 ± 264 nM

Q: What about the “4-HQ concentration formed” value (recombinant MAO-B; 5 μM kynuramine, rec. MAO-B, t = 240 min) of the same compound?
A: 4,692 ± 891 nM

Q: What does the source list for CN(C)CCc1c[nH]c2ccccc12 [DMT, N,N-dimethyltryptamine]?
A: DMT concentration (recombinant MAO-A; 1,000 nM DMT, rec. MAO-A, t = 0 min): 907 ± 31 nM; DMT concentration (recombinant MAO-A; [6]): 110 ± 29 nM; DMT concentration (recombinant MAO-A; rec. MAO-A with clorgyline, t = 0 min): 915 ± 11 nM; DMT concentration (recombinant MAO-A; rec. MAO-A with clorgyline, t = 240 min): 853 ± 69 nM; DMT concentration (recombinant MAO-B; 1,000 nM DMT, rec. MAO-B, t = 0 min): 940 ± 47 nM; DMT concentration (recombinant MAO-B; [7]): 816 ± 56 nM; DMT concentration (recombinant MAO-B; rec. MAO-B with R-deprenyl, t = 0 min): 954 ± 73 nM; DMT concentration (recombinant MAO-B; rec. MAO-B with R-deprenyl, t = 240 min): 1,008 ± 58 nM

Q: For O=C(O)Cc1c[nH]c2ccccc12 [IAA, indole-3-acetic acid], which “IAA concentration formed from DMT” value (recombinant MAO-A; [6]) is on record?
A: 30.3 ± 4.2 nM

Q: What about the “IAA concentration formed from DMT” value (recombinant MAO-B; [7]) of the same compound?
A: 11.5 ± 4.5 nM

Q: Which results are given for NCCC(=O)c1ccccc1N [kynuramine, kynuramine dihydrobromide]?
A: kynuramine signal (recombinant MAO-A; rec. MAO-A, t = 0 min): 135,200 ± 23,816 counts; kynuramine signal (recombinant MAO-A; rec. MAO-A, t = 300 min): 48,503 ± 12,251 counts; kynuramine signal (recombinant MAO-B; rec. MAO-B, t = 0 min): 82,853 ± 11,336 counts; kynuramine signal (recombinant MAO-B; rec. MAO-B, t = 240 min): 9,533 ± 8,311 counts

Q: For CN(C)CCc1c[nH]c2cccc(OC3O[C@H](C(=O)O)[C@@H](O)[C@H](O)[C@H]3O)c12 (stereo partly drawn) [psilocin-O-glucuronide], which half-life [1, 4] is on record?
A: 58.2 ± 3.6 min

Q: And the Cmax [1, 5]?
A: 521 ± 57 ng/mL

Q: And the Tmax [1, 5]?
A: 21 ± 8.4 min

Q: What about the “mean Cmax relative to psilocin (higher)” value ([1]; mouse plasma, 3 mg/kg psilocybin p.o.) of the same compound?
A: 2.6 fold

Q: And the “elimination half-life t1/2 (mean ± SD)” value ([1]; mouse plasma, 3 mg/kg psilocybin p.o., n = 5, 3 mg/kg)?
A: ~60 min

Q: And the “half-life in mice relative to humans (lower)” value ([1]; mouse versus human)?
A: around 4 fold

Q: What about the “plasma concentrations of conjugated psilocin relative to free psilocin (higher)” value ([3]; clinical studies) of the same compound?
A: around 4 fold

Q: And the “fraction of administered psilocybin dose excreted in urine” value ([3]; humans, oral psilocybin, within 24 h (time not stated for 4-HIAA))?
A: Approximately 20%

Q: And the half-life in humans ([3]; humans)?
A: around 4 h
